{"source": "patent US5552267A", "about": "“Solution for prolonged organ preservation” (priority 1994, dated 1996)", "key": {"[1]": {"system": "myocardial infarct / neutrophils", "conditions": "canine ischemia/reperfusion; cited from earlier work"}, "heart [2]": {"system": "heart", "assay": "heterotopic rat cardiac transplant, cAMP series, graft survival/score", "type": "in vivo, rat (male Sprague-Dawley)", "conditions": "12 h in LR", "description": "Preservation solutions included lactated Ringer's (LR) solution Baxter, Edison, N.J.), or LR supplemented with rolipram ZK 62 711, Schering AG, Berlin, Germany), indolidan LY195115, Lilly Research Laboratories, Indianapolis, Ind.), sodium butyrate, 8-bromoadenosine, 8-bromoadenosine 3',5'monophosphate (8-Br-cAMP; Sigma Chemical Co., St. Louis, Mo.), the Rp -isomer of adenosine 3',5'monophosphorothioate (Rp -cAMPS; Biolog, La Jolla, Calif.), the Sp isomer of adenosine 3',5'monophosphorothioate (Sp -cAMPS; Biolog), and N^6,O^2' -dibutyryl adenosine 3',5'monophosphate sodium (db-cAMP; Aldrich, Milwaukee, Wis.). Components were combined within 4 hrs of donor cardiectomy, and preservation solutions were kept at 4° C. University of Wisconsin solution (UW)(2-4 was purchased from Dupont (Wilmington, Del.).\nDonor Cardiectomy. Male Sprague-Dawley rats (350-450 grams, Camm Research, Wayne, N.J.) were anesthetized, heparinized (1000 units of heparin given intravenously), and the donor heart removed in the following manner; a midline incision was performed, followed by rapid cardioplegic arrest with 5 ml of cold (4° C.), high potassium solution (NACl, 0.9%, and KCl, 40 mEq/L). The heart was maintained at 4° C. throughout the harvest procedure by the application of a cold saline soaked gauze over its surface. […] The aortic root was flushed with ≈15 ml of the cold preservation solution until the coronary arteries became visibly clear, and the heart remained in the cold storage solution for the indicated duration until the time of transplantation.\nHeterotopic Transplant. The same breed/size of rat was used, and similarly anesthetized, but not given heparin. A midline abdominal incision was made, and the infrarenal aorta and vena cava were occluded with a side-biting vascular clamp and longitudinal incisions were made in each vessel. The donor heart was removed from the preservation solution and kept moist with saline-soaked gauze. […] Blood flow was restored to the graft (by removal of the clamp) exactly one hour after removal from the cold preservation solution. […] Ten minutes after removal of the cross-clamp, an electrocardiogram was taken (Grass Polygraph, Quincy, Mass.) and the heart was judged by the same blinded investigators throughout based on the presence/absence of regular contractions and a transplant score (0-5, worst-best, respectively) employing the following criteria: contraction (poor=0, average=1, vigorous=2), tissue turgor (hard=0, average=1, soft=2), and color (dusky=0, pink=1). […] The heterotopic cardiac transplant experiments performed in these studies were done by a single surgeon after establishment of this model and acquisition of surgical expertise, with control and experimental groups interspersed throughout the study period to prevent a time-dependent bias pertaining to surgical skills.\nStatistics. Graft survival data and transplant scores were analyzed using the Kruskal-Wallis non-parametric analysis of variance (38). Comparisons of individual treatments were performed using the procedure described by Dunn (39). In addition, the effect of db-cAMP on the time-course of graft failure was quantified by multivariate logistic regression. Graft myeloperoxidase data, microsphere data, and cAMP/adenylate cyclase/phosphodiesterase data from experiments with cultured vascular smooth muscle cells were analyzed by t-tests when 2 treatments were performed or by analysis of variance when 3 or more treatments were performed. In the latter case, post-hoc comparison of treatment groups were tested using Tukey's procedure. Values are expressed as means ±SEM, with a p <0.05 considered statistically significant."}, "HUVECs / platelets": {"system": "HUVECs / platelets", "assay": "NO by inhibition of thrombin-induced platelet aggregation and serotonin release by ECs", "type": "cell-based, human", "conditions": "normoxic ECs (hemoglobin); hypoxia 16 h + reoxygenated ECs (SOD, BHT)", "quoted_text": "Radiolabelled serotonin (^14 C-5-hydroxytryptamine, Amersham, Arlington Heights, Ill.) was incorporated into the platelets by adding 0.5 μCi during the blood collection process. Inhibition of cyclooxygenase was confirmed by the absence of aggregation to 1 mM sodium arachidonate.\nHUVECs from fresh human umbilical veins were isolated and grown according to previously published methods^12, and used between the 3rd and 4th passages. HUVEC cyclooxygenase was inhibited with acetylsalicylic acid (1 mmol/L in M199 medium, incubated for 30 minutes at 37° C., and then washed twice with M199 to remove residual acetylsalicylic acid) immediately prior to collagenase digestion. […] An hypoxic environment was administered by placing cells in a specially designed airtight chamber (Coy Laboratory Products, Ann Arbor, Mich.) with a normobaric environment comprised of 90% N2, 5% H2, 5% CO2, and 0% O2. pO2 s of 15 Torr in the culture medium were achieved by the use of a palladium catalyst in the chamber to reduce any residual O2. All manipulations, including centrifugation and washing of cells (up to the final aggregometry, or reoxygenation phases as described), were performed within the hypoxia chamber. Reoxygenation was accomplished by removing an aliquot of washed and counted HUVECs in suspension to room air for the indicated duration.\nPlatelets were challenged with graded doses of α-thrombin (Sigma) to determine the concentration that caused maximal platelet aggregation (0.3 u/mL in all cases), and this dose was used for all further studies. […] Interference with light absorption was measured for 3 minutes to obtain platelet aggregation curves, after which the cuvette contents were placed on ice, centrifuged at 5,000 rpm for 5 minutes at 4° C., and 200 μL of supernatant was recovered and counted in a liquid scintillation counter to quantify ^14 C-serotonin release. […] Results are expressed as both aggregometry curves and as % maximal serotonin release as defined by thrombin challenge in the absence of ECs."}, "heart [3]": {"system": "heart", "assay": "heterotopic rat heart transplant model, First Series Experiment One (heart survival rate, heart transplant index)", "type": "in vivo, rat (male Sprague-Dawley)", "conditions": "in place of db cAMP, 24 hr"}, "[4]": {"target": "cAMP-dependent protein kinase", "conditions": "cited from earlier work"}, "[5]": {"target": "cGMP-dependent protein kinase", "conditions": "cited from earlier work"}, "lung": {"system": "lung", "assay": "orthotopic rat left lung transplantation, cGMP series (hemodynamics, oxygenation, recipient survival)", "type": "in vivo, rat (male Lewis)", "conditions": "6 h in EC", "procedure": "Orthotopic rat left lung transplantation was accomplished using inbred male Lewis rats (250-300 gms), using a modification of a previously described technique^29. The donor rat was anesthetized and heparinized (500 U intravenously), and endotracheal intubation was performed by inserting a 16 gauge angiocatheter into the trachea using blunt cervical dissection, after which the rat was ventilated with room air at a constant rate (100 breaths/minute) and tidal volume (2.5 ml), using a Harvard rodent ventilator. […] The pulmonary artery (PA) and pulmonary vein (PV) were divided, the bronchus ligated with the lung partially inflated and then divided, and the lung removed. The vascular stumps were each pulled through a small plastic cylinder, and a lip of vessel was turned back around the edge and secured in place with a suture to form a \"cuff.\" A small plastic cylinder was inserted into the bronchial stump and secured, and the lung was then wrapped in gauze and submerged in cold preservation solution for the desired interval.\nThe recipient rat (gender/size/strain-matched) was similarly anesthetized and intubated (ventilated with 100% oxygen), but not heparinized. A left thoracotomy was performed, the hilum was dissected, and the left bronchus, PA, and PV were isolated, cross-clamped, divided and the native lung was removed from the field. The PA and PV stumps were rinsed with heparinized saline to remove any clot. The donor lung was brought onto the surgical field, and the cylinder (bronchus) and cuffs (PA and PV) were connected rapidly to their respective structures with a simple staying suture. This cuff technique permitted rapid approximation of donor and recipient tissues with no contact of a foreign substance with the luminal vascular surface. The hilar cross-clamp was released, re-establishing blood flow, and the bronchus tie was removed, enabling gas exchange. A snare was then passed around the right PA, and a Millar catheter (2F; Millar Instruments,Houston, Tex.) was introduced through a small hole (surrounded by a pursestring) into the main PA; similarly, a Millar catheter was introduced into the left atrium (LA). A flow probe (Transonics, Ithaca, N.Y.) was then placed around the main PA. Arterial blood gas sampling performed via the left femoral artery.\nOnline hemodynamic monitoring was accomplished using MacLab and a Macintosh IIci computer. The hemodynamic parameters that were measured included PA pressure (mm Hg), blood flow (ml/min), LA pressure (mm Hg), as well as arterial oxygen tension (mm Hg) during inspiration of 100% oxygen; pO2 was analyzed with a model ABL-2 dissolved gas analyzer (Radiometer, Copenhagen, Denmark). Pulmonary vascular resistances (PVRs) were calculated as [mean PA pressure-LA pressure]/PA flow. The native lung supported the recipient during the period of warm ischemia (the period during which the donor lung was removed from cold preservation until the time of reperfusion, <10 min. in all instances), but immediately following rapid hemodynamic instrumentation and acquisition of baseline measurements, the native (right) PA was then ligated, and serial measurements (representative solely of the transplanted lung) were taken every five minutes for 30 minutes. Because the native lung was effectively removed from the circulation by ligation of the right PA, these measurements represent function of the transplanted lung. Recipient death was identified by the cessation of cardiac mechanical activity observed through the thoracotomy.\nPreservation solutions were freshly made and coded by a technician not otherwise involved in the experiments, according to a general plan which included both control and experimental groups. […]"}, "[6]": {"system": "nitric oxide production in heart", "assay": "direct measurement of coronary vascular and endocardial NO with porphyrinic microsensor", "parameters": "species or system rat", "conditions": "transplanted hearts", "procedure": "Direct measurement of coronary vascular and endocardial nitric oxide synthesis were made with a porphyrinic microsensor^13 using differential pulse voltammetry or amperometry. Rat hearts were explanted and preserved as described above, and studied fresh (no preservation/transplantation) or after hypothermic preservation in lactated Ringer's (LR) solution, heterotopic transplantation, and 10 minutes of reperfusion. The coronary vasculature was flushed free of blood with LR followed by 4 ml of LR supplemented with L-Arg (2 mM) and bradykinin ([…], Sigma), which was recycled (1 ml/min) through the coronary vasculature by flushing down the cross-clamped aortic root. Aliquots of perfusate were immediately transferred to an anaerobic environment for measurements and compared to an aqueous nitric oxide reference. Differential pulse voltammograms were obtained using a sensor (working electrode), saturated calomel electrode reference, and platinum wire-auxiliary electrode, with a pulse amplitude of 40 mV. Endocardial NO was measured by implanting the sensor in the septal endocardium of a freshly explanted or preserved/transplanted heart, and after the baseline stabilization, […] bradykinin was applied and NO release continuously monitored by amperometry at constant potential of 0.63 V."}, "[7]": {"system": "nitric oxide in lung tissue", "assay": "ex vivo pulmonary NO with porphyrinic microsensor", "parameters": "species or system rat", "procedure": "Direct measurement of pulmonary NO production was made using a porphyrinic microsensor^30 and differential pulse voltammetry. Pieces of rat lung of equal weight (40±4 mg) were harvested following 6 hrs of hypothermic preservation in LR alone, or 6 hrs of preservation followed by orthotopic transplantation and 30 minutes of reperfusion as described above. These pieces were placed in a vial containing 2 mL of LR and equilibrated to 37° C. under ambient conditions. Differential pulse voltammograms (current [proportional to NO concentration] versus potential) with pulse amplitude of 40 mV were obtained with a sensor placed on the tissue surface. A saturated calomel reference electrode (SCE) and platinum wire (auxiliary electrode) were immersed in the LR solution. The sensor is a working electrode at which oxidation of NO occurs, resulting in an electric current (which flows between working and auxiliary electrodes). The reference electrode is used to monitor the potential of the working electrode. NO concentrations measured ex vivo have been normalized, and are reported as per 40 mg of tissue. An aqueous NO solution prepared as previously described^31 was used to calibrate the sensor."}, "[8]": {"system": "nitric oxide at lung surface", "assay": "in vivo pulmonary NO with porphyrinic microsensor", "parameters": "species or system rat", "procedure": "Measurements of nitric oxide concentrations in vivo were performed with a two electrode system using a porphyrinic sensor as a working electrode and a platinum wire as an auxiliary/reference electrode. The porphyrinic sensor with a flexible base was lowered onto the exposed surface of the lung using a micromanipulator. A small piezoelectric signal (mechanically generated current) was used to indicate that the sensor had made contact with the tissue surface. NO measurements were begun once the flexible sensor assumed an L-shaped configuration on the tissue surface and the platinum wire was connected to adjacent tissue. Continous amperometric (current-time) measurements were obtained at a constant potential of 0.68 V, during the period of warm ischemia (after the lung was sewn in place but not yet reperfused) and continously as the vascular cross-clamp was released and reperfusion initiated. Topical application of the calcium ionophore (A23187, 9.5 μM; Sigma) and superoxide dismutase (100 U/ml; Sigma) was applied as monitoring was continued."}, "[9]": {"conditions": "lung preserved 6 h in LR, no reimplantation"}}, "note": "“Also recorded” adds a separate entry of the source."}
{"molecule": "COc1ccc(C2CNC(=O)C2)cc1OC1CCCC1", "note": "(stereo not shown) [rolipram]", "values": [{"measurement": "myocardial infarct size", "setting": "[1]", "value": "does not limit myocardial infarct size"}, {"measurement": "neutrophil superoxide production in vitro / no-reflow", "setting": "[1]", "value": "significantly reduces neutrophil production of superoxide in vitro"}, {"measurement": "effect on cardiac preservation", "setting": "heart [2]", "value": "uniformly enhanced preservation"}]}
{"molecule": "hemoglobin", "values": [{"measurement": "effect on NO / platelet inhibition by ECs", "setting": "HUVECs / platelets", "value": "blocked"}]}
{"molecule": "Nc1ncnc2c1nc(Br)n2[C@@H]1O[C@H](CO)[C@@H](O)[C@H]1O", "note": "[8-bromoadenosine]", "values": [{"measurement": "beneficial effect on cardiac preservation", "setting": "heart [3]", "value": "no such beneficial effect"}, {"measurement": "effect on cardiac preservation", "setting": "heart [2]", "value": "ineffective"}]}
{"molecule": "CCCC(=O)[O-].[Na+]", "note": "[butyrate, sodium butyrate]", "values": [{"measurement": "beneficial effect on cardiac preservation", "setting": "heart [3]", "value": "no such beneficial effect"}, {"measurement": "effect on cardiac preservation", "setting": "heart [2]", "value": "consistently failed"}]}
{"molecule": "Cc1cc(C(C)(C)C)c(O)c(C(C)(C)C)c1", "note": "[BHT, butylated hydroxytoluene]", "values": [{"measurement": "effect on NO / platelet inhibition by ECs", "setting": "HUVECs / platelets", "value": "restore NO levels"}]}
{"molecule": "Nc1nc2c(nc(Sc3ccc(Cl)cc3)n2[C@@H]2O[C@@H]3CO[P@@](O)(=S)O[C@H]3[C@H]2O)c(=O)[nH]1", "note": "[Rp-8-pCPT-cGMPS, R isomer of 8-(4-chlorophenylthio)guanosine-3'5'-cyclic monophosphorothioate]", "values": [{"measurement": "Ki", "setting": "[4]; cAMP-dependent protein kinase, personal communication", "value": 8.3, "unit": "µM"}, {"measurement": "Ki", "setting": "[5]; cGMP-dependent protein kinase, personal communication", "value": 500, "unit": "nM"}, {"measurement": "effect on lung preservation", "setting": "lung", "value": "block the beneficial effects of 8-Br-cGMP"}]}
{"molecule": "Nc1ncnc2c1ncn2[C@@H]1O[C@@H]2CO[P@](O)(=S)O[C@H]2[C@H]1O", "note": "[Sp -cAMPS, Sp isomer of adenosine 3'5'monophosphorothioate]", "values": [{"measurement": "effect on cAMP-dependent protein kinase", "setting": "[4]", "value": "PKA agonist"}, {"measurement": "effect on cGMP-dependent protein kinase", "setting": "[5]", "value": "antagonist of the cGMP-dependent protein kinase"}, {"measurement": "effect on cardiac preservation", "setting": "heart [2]", "value": "enhanced preservation"}]}
{"molecule": "Nc1ncnc2c1ncn2[C@@H]1O[C@@H]2CO[P@@](O)(=S)O[C@H]2[C@H]1O", "note": "[Rp -cAMPS, Rp isomer of adenosine 3'5'monophosphorothioate]", "values": [{"measurement": "effect on cAMP-dependent protein kinase", "setting": "[4]", "value": "nonhydrolyzable competitive PKA antagonist"}, {"measurement": "effect on cardiac preservation", "setting": "heart [2]", "value": "prevented preservation enhancement induced by 8-bromo-cAMP; also recorded: abolished the salutory effect of 8-Br-cAMP on preservation"}]}
{"molecule": "SOD: bovine erythrocyte superoxide dismutase", "values": [{"measurement": "effect on NO levels", "setting": "[6]", "value": "levels augmented"}, {"measurement": "effect on NO / platelet inhibition by ECs", "setting": "HUVECs / platelets", "value": "restore NO levels"}, {"measurement": "fold increase in detectable NO with SOD", "setting": "[7]; lung preserved 6 h in LR and reimplanted", "value": "~ 25 fold"}, {"measurement": "NO concentration with SOD", "setting": "[7]; [9]", "value": 300, "unit": "nM"}, {"measurement": "increase in NO with SOD", "setting": "[7]; [9]", "value": 50, "unit": "%"}, {"measurement": "increase in NO with SOD", "setting": "[8]; normal lung", "value": 10, "unit": "%"}, {"measurement": "local NO concentration with SOD", "setting": "[8]; normal lung", "value": "720 ± 110", "unit": "nM"}, {"measurement": "NO level with SOD during reperfusion", "setting": "[8]; preserved 6 h in LR, transplanted, from ~25 nM", "value": "~ 40 nM"}]}
